# Assay results from patent US8383601B2, “Tissue specific gene therapy treatment” (Thomas Jefferson University, priority 2006, dated 2013).
# Where no end group is shown, it is not given here.
# How the values were obtained:
# mouse thoracic aorta = experiment: In vitro physiology: relaxation/contraction response of thoracic aorta rings
# Description: In Vitro physiology —The relaxation/contraction response of thoracic aortas of WT or SKO mice was examined using a commercially available mounting apparatus attached to a force transducer (ADInstruments). […] Data were normalized to the PE-induced EC50 contraction which were similar between all aorta tested.
# [1] = tested on: endothelial surface of thoracic aorta; experiment: NO release from mouse aorta; conditions: ACh 10^−5 M
# Description: NO release from mouse aorta—NO release from the endothelial surface of aorta was measured in vitro using an Apollo 4000 “Free Radical Analyzer” (WPI, Sarasota, Fla.) as previously described with some modifications.^52 Briefly, thoracic aorta of WT (n=4) and SKO (n=4) mice were carefully isolated and pinned down in KH solution after connective tissue was thoroughly removed. NO was measured under baseline conditions as well as after ACh stimulation (10^−5 M). Two measurements were recorded per animal and condition and NO values were normalized to the weight of the vascular tissue.
# [2] = tested on: rat MI model (chronic HF); experiment: Catheter-based in vivo hemodynamic measurements in post-MI HF rats; conditions: mean ± SEM
# Description: (§1) Rat MI model and cardiac gene delivery—All animal procedures and experiments were performed in accordance with the guidelines of the IACUC of Thomas Jefferson University. MI was induced as described previously using a model of cryoinfarction that produces a highly reproducible loss of myocardium^13. Briefly, anesthetized adult male (250-300 g) rats were intubated and mechanically ventilated and anaesthesia was maintained using a 2% isoflurane (v/v) oxygen mixture. The heart was exposed through a median sternotomy and the pericardium was opened. A 6-0 suture was placed at the apex of the LV. An 8 mm diameter cylindrical stamp was cooled in liquid nitrogen and then pressed on the LV free wall. Cryothermia was applied by use of three freeze cycles of 1 min each that was interrupted by one minute thawing intervals^13,15.
# Myocardial gene transfer to 10 week post-MI rats was achieved as previously described^13,15 with some modifications. Briefly, under general anesthesia (2% isoflurane, v/v) a midline cervical incision was made and the animal was cooled to 29° C. using ice packs. A P-50 catheter (Becton Dickinson, Sparks, Md.) was advanced into the aortic root via the right carotid artery and the ascending aorta was looped using 2-0 silk. 1.2 mg adenosine was injected into the right ventricle using a 30½ G needle. Next, the ascending aorta was clamped and 2.5×10^11 particles of the AAV construct and 8 μg of substance P (Sigma) were rapidly injected into the aortic root allowing for coronary perfusion. After 2 min the aortic clamp was released, a bolus of dobutamine (30 μg; intra-arterial) was administered and the animal was re-warmed using a heating pad. The incision was closed and animals were transferred back to their cages receiving appropriate analgesia. […]
# Catheter-based in vivo hemodynamic measurements—Cardiac function was measured 8 weeks following gene therapy (18 weeks after MI) in anesthetized rats (2% isoflurane; v/v) using 2 F pressure catheter (SPR-320; Millar instruments, Houston, Tex.). The pressure transducer was placed into the LV cavity through the right carotid artery and the right external jugular vein was cannulated with a P-10 catheter (Becton Dickinson, Sparks, Md.) that was used for isoproterenol administration (333 ng/kg BW) as previously described^13,15.
# [3] = tested on: rat MI model (chronic HF); experiment: Echocardiography of global cardiac function in post-MI HF rats; assay type: in vivo
# Description: as §1
# Myocardial gene transfer to 10 week post-MI rats was achieved as previously described^13,15 with some modifications. […]
# Echocardiography—To measure global cardiac function, echocardiography was performed 10 and 18 weeks post-MI by use of the VisualSONICS VeVo 770 imaging system with a 710 scanhead in anesthetized animals (2% isoflurane, v/v). The internal diameter of the LV was measured in the short-axis view from M-mode recordings in end diastole and end systole. […]
# [4] = tested on: rat MI model (chronic HF); experiment: Heart weight to body weight ratio in post-MI HF rats; assay type: in vivo; conditions: 18 weeks post-MI; mean ± SEM
# Description: Myocardial gene transfer to 10 week post-MI rats was achieved as previously described^13,15 with some modifications. Briefly, under general anesthesia (2% isoflurane, v/v) a midline cervical incision was made and the animal was cooled to 29° C. using ice packs. A P-50 catheter (Becton Dickinson, Sparks, Md.) was advanced into the aortic root via the right carotid artery and the ascending aorta was looped using 2-0 silk. 1.2 mg adenosine was injected into the right ventricle using a 30½ G needle. Next, the ascending aorta was clamped and 2.5×10^11 particles of the AAV construct and 8 μg of substance P (Sigma) were rapidly injected into the aortic root allowing for coronary perfusion. […]
# [5] = tested on: adult rat ventricular cardiomyocytes; experiment: Diastolic cell length of isolated cardiomyocytes; assay type: cell-based; conditions: 2 hrs after cardiomyocyte isolation, 3 animals per group, 18 weeks post-MI; mean ± SEM
# Description: Isolation of adult rat ventricular cardiomyocytes—Ca^2+-tolerant adult cardiomyocytes were isolated from LVs 8 weeks after gene delivery (18 weeks post-MI) by a standard enzymatic digestion procedure and cultivated as described^13,15. […] Length of isolated cardiomyocytes was determined on enlarged digital photos using Olympus Fluoview 4.3 software.
# [6] = tested on: adult rat ventricular cardiomyocytes; experiment: Ca2+-transient analyses and contractile parameters of isolated adult rat cardiomyocytes; assay type: cell-based; conditions: 8 weeks after treatment; 1 Hz, 2.5 mM [Ca2+]e; for AAV6/S100A1 infected (green) cells only
# [7] = tested on: LV mRNA (S100A1, SERCA2a, PLB, ANF, TGFβ1, Collagen I); experiment: Real-time RT-PCR of cardiac expression of key genes in LV; assay type: in vivo, rat; conditions: 18 weeks post-MI
# Description: RNA isolation and real-time RT-PCR—Total RNA was isolated from LV as well as from isolated cardiomyocytes using either Ultraspec® (Biotec) or Trizol® (Life Technologies). cDNA was synthesized by reverse transcription of the RNA with Superscript II® (Life Technologies) as recommended. Real-time RT-PCR was performed in duplicates with a 1:100 dilution of the cDNA on a MyIQ real time PCR detection system (BioRad) with the SYBR® Green PCR master mix (Applied Biosystems) as described previously^13,15. The oligonucleotide primers to examine expression of genes were as follows: ANF, forward primer 5′-[…]-3′ (SEQ. ID. No. 13), reverse primer 5′-[…]-3′ (SEQ. ID. No. 14); SERCA2a, forward primer 5′-[…]-3′ (SEQ. ID. No. 15), reverse primer 5′-[…]-3′ (SEQ. ID. No. 16); PLB, forward primer 5′-[…]-3′ (SEQ. ID. No. 17), reverse primer 5′-[…]-3′(SEQ. ID. No. 18); S100A1, forward primer 5′-[…]-3′ (SEQ. ID. No. 19), reverse primer 5′-[…]-3′ (SEQ. ID. No. 20); TGF-131, forward primer 5′-[…]-3′ (SEQ. ID. No. 21), reverse primer 5′-[…]-3′(SEQ. ID. No. 22); Collagen type I, forward primer 5′-[…]-3′ (SEQ. ID. No. 23), reverse primer 5′-AGGTGATGTTCTGGG-3′(SEQ. ID. No. 24); GRK2, forward primer 5′-[…]-3′ (SEQ. ID. No. 25), reverse primer 5′-[…]-3′ (SEQ. ID. No. 26). For normalization, 18S rRNA was used, forward primer 5′-[…]-3′ (SEQ. ID. No. 27), reverse primer 5′-GGACATCTAAGGGCATCAC-3′ (SEQ. ID. No. 28). PCR conditions were 95° C., 3 min, and 40 cycles of 95° C., 10 sec; 60.5° C., 45 sec. Specificity of PCR products were confirmed by gel electrophoresis.
# [8] = tested on: S100A1 mRNA expression in RCEC; experiment: Regulation of S100A1 expression in endothelial cells; assay type: cell-based, rat; conditions: 10^−7 M, 60 hours, versus PBS
# Description: Regulation of S100A1 expression in HCAEC—After growing HCAEC or RCEC to 90% confluency full medium was replaced by basal EBM-2 medium with 0.5% serum and cells were stimulated with endothelin-1 (ET-1), angiotensin II (AngII) (both 10^−7 M) or PBS for 60 h. Cells were harvested for either mRNA or protein isolation and S100A1 expression was standardized against 18S rRNA or GAPDH.
# RNA Isolation and Real-time RT-PCR—Total RNA was isolated from either HCAEC or […] using Trizol® (Life Technologies). cDNA was synthesized by reverse transcription of the RNA with Superscript II® (Life Technologies) as recommended. Real-time PCR was performed in duplicates with a 1:100 dilution of the cDNA on a MyIQ real time PCR detection system (BioRad) with the SYBR® Green PCR master mix (Applied Biosystems). The oligonucleotide primers to examine expression of genes were as follows: S100A1, forward primer 5′-[…]-3′ (SEQ. ID. No. 19), reverse primer 5′-[…]-3′ (SEQ. ID. No. 20). For normalization, 18S rRNA was used, forward primer 5′-[…]-3′ (SEQ. ID. No. 27), reverse primer 5′-GGACATCTAAGGGCATCAC-3′ (SEQ. ID. No. 28). PCR conditions were 95° C., 3 min, and 40 cycles of 95° C., 10 sec; 63.5° C., 45 sec. Specificity of PCR products were confirmed by gel electrophoresis.
# HCAEC = experiment: S100A1 overexpression and NO production in HCAEC; assay type: cell-based, human; conditions: HCAEC pre-incubated with 10^−4 M 20 minutes prior to ACh
# Description: S100A1 overexpression and NO production in HCAEC—S100A1 overexpression in HCAEC was achieved by electrical transfection of the plasmid pAdTrack-S100A1 (10 μg), which encodes for GFP and S100A1 both driven by individual cytomegalovirus (CMV) promoters. PBS and the plasmid pAdTrack (10 μg) were used as controls. 500,000 HCAEC were used for each transfection using Nucleofactor® (AMAXA biosystems) according to the manufacturers instructions and plated on 6 well dishes. 18 hours after transfection cells were stimulated using 10^−5M ACh or PBS for 1 hour. […] NO in the supernatant was measured indirectly using the Nitrate/Nitrite fluorometric assay kit (Cayman, Chemical) according to company recommendations. Transfection was controlled by GFP expression as described previously and cells were harvested for mRNA isolation. Experiments were run in triplicate and 3 individual experiments were performed.
# [9] = Isoproterenol (333 ng/kg BW), 8 weeks after gene therapy in HF
# [10] = basal, 8 weeks after gene therapy in HF
compound,measurement,setting,value
"CC(=O)OCC[N+](C)(C)C [ACh, acetylcholine]",maximal response to ACh,mouse thoracic aorta; SKO aortas (n=6),55±6.49 % of PE-precontraction
same,maximal response to ACh,mouse thoracic aorta; WT control aortas (n=6),14±2.41 % of PE-precontraction
same,ACh stimulated aortic endothelial NO release,"[1]; SKO mice (n=4), second value",134.5±25.3 nM NO/mg tissue
same,ACh stimulated aortic endothelial NO release,[1]; WT mice (n=4),368.2±68.1 nM NO/mg tissue
COCCc1ccc(OCC(O)CNC(C)C)cc1 (centres unmarked) [metoprolol],HR,[2]; [9],308 ± 6^& min^−1
same,LV +dP/dt,[2]; [9],9403 ± 491 mmHg/s
same,LV −dP/dt,[2]; [9],5571 ± 333 mmHg/s
same,LVEDP,[2]; [9],2.8 ± 0.4 mmHg
same,LVESP,[2]; [9],105 ± 3.7 mmHg
same,HR,"[2]; basal, 8 weeks after gene therapy in HF (18 weeks post-MI)",264 ± 8^& min^−1
same,LV +dP/dt,[2]; [10],4948 ± 225 mmHg/s
same,LV −dP/dt,[2]; [10],4418 ± 223 mmHg/s
same,LVEDP,[2]; [10],4.6 ± 0.5 mmHg
same,LVESP,[2]; [10],109 ± 3.1 mmHg
same,LV chamber dilatation (LV diastolic dimension),[3]; 18 week post-MI compared to pre-treatment (10 week post-MI) values,significantly attenuated further LV chamber dilatation
same,change in cardiac function (EF) over the 2 month treatment period,"[3]; HF rats, metoprolol only (with GFP)",no improvement
same,HW/BW ratio,[4],2.77 ± 0.05 g/kg
same,Cell length (diastolic),[5],118.9 ± 2.3 μm
same,contractile properties and [Ca2+]i transients of isolated failing myocytes,[6],did not affect contractile properties
same,Collagen I mRNA levels,[7],significantly reduced
same,TGFβ1 mRNA levels,[7],significantly reduced
same,ventricular ANF mRNA expression,[7],significantly reduced
same,PLB mRNA levels,[7]; standardized to 18S rRNA,attenuated the down-regulation
same,SERCA2a mRNA levels,[7]; standardized to 18S rRNA,attenuated the down-regulation
same,cardiac S100A1 mRNA,[7]; standardized to 18S rRNA,attenuated the down-regulation
"CNC[C@H](O)c1cccc(O)c1 [PE, phenylephrine]",EC50,"mouse thoracic aorta; Mus musculus, read-out: EC50 of the PE response (contraction)",300 nM
"endothelin-1 (CSCSSLMDKECVYFCHLDIIW; ends and bridges not checked; cysteine pairing not given here; UniProt P05305 53-73, looked up) [ET-1]",S100A1 mRNA levels,[8],significantly reduced
"angiotensin II (DRVYIHPF; Angiotensin-2; UniProt P01019 25-32, looked up) [Ang II]",S100A1 mRNA levels,[8],significantly reduced
"NCCOB(c1ccccc1)c1ccccc1 [2-APB, 2-aminoethoxydiphenylborate]",ACh-stimulated NO generation after IP3R blockage,HCAEC,abolished NO generation
